Earlier results as cited in PMC5600712 (ACS chemical biology, 2017).

How the values were obtained:
proteasome = conditions: α,β-epoxyketone proteasome inhibitor
class I HDACs = conditions: class I compared with class II HDACs

CC(C)C[C@H](NC(=O)[C@H](CCc1ccccc1)NC(=O)CN1CCOCC1)C(=O)N[C@@H](Cc1ccccc1)C(=O)N[C@@H](CC(C)C)C(=O)[C@@]1(C)CO1 [carfilzomib]
covalent adduct formation with proteasome (proteasome): forms a covalent adduct to block proteasome function

HC toxin
selectivity of binding, class I versus class II HDACs (class I HDACs): tighter binding of these inhibitors to class I HDACs
